Source: patent US20130230459A1, “RADIOLABELLED mGluR2 PET LIGANDS” (Janssen Pharmaceuticals, Inc., priority 2010, published 2013)
Where “and” joins values, the source holds several entries; their conditions need not be identical. Equal entries are not always repeated.

Experiment: Biodistribution studies of 11C tracers
Format: in vivo, Wistar rats
Conditions: for SUV Blood / SUV Cerebellum / SUV Cerebrum total / SUV Cortex / SUV Hippocampus / SUV Striatum: normalized for body weight
Procedure: Biodistribution studies were carried out in healthy male Wistar rats (body weight 200-450 g) at 2 min, 30 min and 60 min post injection (p.i.) (n=3/time point). Rats were injected with about 11 MBq (2 min, 30 min analysis) or 22 MBq (60 min analysis) of the tracer via tail vein under anesthesia (2.5% isoflurane in O2 at 1 L/min flow rate) and sacrificed by decapitation at above specified time points. Blood and major organs were collected in tared tubes and weighed. The radioactivity in blood, organs and other body parts was measured using an automated gamma counter. The distribution of radioactivity in different parts of the body at different time points p.i. of the tracer was calculated and expressed as percentage of injected dose (% ID), and as percentage of injected dose per gram tissue (% ID/g) for the selected organs. % ID is calculated as cpm in organ/total cpm recovered. For calculation of total radioactivity in blood, blood mass was assumed to be 7% of the body mass.

In the case of [11CH3]Oc1cc(F)cc(F)c1C1CCN(c2ccn3c(CC4CC4)nnc3c2Cl)CC1 [[^11C]B-7, 8-chloro-3-(cyclopropylmethyl)-7-[4-[2,4-difluoro-6-[^11C]methoxyphenyl]-1-piperidinyl]-1,2,4-triazolo[4,3-a]pyridine], the “% ID Blood” value (2 min p.i.) is reported as 5.4 % ID and 5.4 ± 0.3 % ID, the “% ID Carcass” value (2 min p.i.) is reported as 40 % ID and 39.8 ± 2.8 % ID and the “% ID Cerebellum” value (2 min p.i.) is reported as 0.18 % ID and 0.179 ± 0.043 % ID. The “% ID Cerebrum total” value (2 min p.i.) was 0.53 % ID and 0.529 ± 0.098 % ID, the “% ID Cortex” value (2 min p.i.) was 0.081 ± 0.011 % ID and the “% ID Heart” value (2 min p.i.) was 4.1 ± 0.4 % ID. The “% ID Hippocampus” value (2 min p.i.) was 0.020 ± 0.004 % ID, the “% ID Intestines” value (2 min p.i.) was 8.2 ± 1.1 % ID and the “% ID Kidneys” value (2 min p.i.) was 6.5 ± 0.7 % ID. For the same compound, the “% ID Liver” value (2 min p.i.) was 33.4 ± 2.0 % ID, the “% ID Lungs” value (2 min p.i.) was 1.8 ± 0.7 % ID and the “% ID Rest of cerebrum” value (2 min p.i.) was 0.428 ± 0.084 % ID. The “% ID Spleen + Pancreas” value (2 min p.i.) was 1.3 ± 0.2 % ID, the “% ID Stomach” value (2 min p.i.) was 1.5 ± 0.2 % ID and the “% ID Striatum” value (2 min p.i.) was 0.028 ± 0.008 % ID. The “% ID Urine” value (2 min p.i.) was 0.1 ± 0.0 % ID, the Total brain uptake (2 min p.i.) was 0.75 % ID and 0.75 ± 0.1 % ID and the “SUV Blood” value (2 min p.i.) was 0.80 ± 0.00. For the same compound, the “SUV Cerebellum” value (2 min p.i.) was 1.53 ± 0.03, the “SUV Cerebrum total” value (2 min p.i.) was 1.08 ± 0.02 and the “SUV Cortex” value (2 min p.i.) was 1.14 ± 0.03. The “SUV Hippocampus” value (2 min p.i.) was 0.85 ± 0.02, the “SUV Striatum” value (2 min p.i.) was 1.13 ± 0.03 and the “% ID Blood” value (30 min p.i.) was 3.5 ± 0.2 % ID. For the same compound, the “% ID Carcass” value (30 min p.i.) was 64.9 ± 4.2 % ID, the “% ID Cerebellum” value (30 min p.i.) was 0.198 ± 0.026 % ID and the “% ID Cerebrum total” value (30 min p.i.) was 0.718 ± 0.142 % ID. For the same compound, the “% ID Cortex” value (30 min p.i.) was 0.120 ± 0.018 % ID, the “% ID Heart” value (30 min p.i.) was 1.4 ± 0.2 % ID and the “% ID Hippocampus” value (30 min p.i.) was 0.030 ± 0.003 % ID. For the same compound, the “% ID Intestines” value (30 min p.i.) was 10.2 ± 1.5 % ID, the “% ID Kidneys” value (30 min p.i.) was 2.8 ± 0.3 % ID and the “% ID Liver” value (30 min p.i.) was 14.6 ± 1.2 % ID. The “% ID Lungs” value (30 min p.i.) was 0.6 ± 0.1 % ID, the “% ID Rest of cerebrum” value (30 min p.i.) was 0.523 ± 0.117 % ID and the “% ID Spleen + Pancreas” value (30 min p.i.) was 1.2 ± 0.3 % ID. The “% ID Stomach” value (30 min p.i.) was 1.4 ± 0.2 % ID, the “% ID Striatum” value (30 min p.i.) was 0.045 ± 0.014 % ID and the “% ID Urine” value (30 min p.i.) was 0.4 ± 0.1 % ID. For the same compound, the Total brain uptake (30 min p.i.) was 0.93 ± 0.2 % ID, the “SUV Blood” value (30 min p.i.) was 0.50 ± 0.00 and the “SUV Cerebellum” value (30 min p.i.) was 2.0 and 2.00 ± 0.03. For the same compound, the “SUV Cerebrum total” value (30 min p.i.) was 1.51 ± 0.03, the “SUV Cortex” value (30 min p.i.) was 1.72 ± 0.05 and the “SUV Hippocampus” value (30 min p.i.) was 1.20 ± 0.01. The “SUV Striatum” value (30 min p.i.) was 1.70 ± 0.03, the “% ID Blood” value (60 min p.i.) was 3.7 % ID and 3.7 ± 0.4 % ID and the “% ID Carcass” value (60 min p.i.) was 61.5 ± 5.7 % ID. For the same compound, the “% ID Cerebellum” value (60 min p.i.) was 0.163 ± 0.011 % ID, the “% ID Cerebrum total” value (60 min p.i.) was 0.543 ± 0.014 % ID and the “% ID Cortex” value (60 min p.i.) was 0.059 ± 0.007 % ID. The “% ID Heart” value (60 min p.i.) was 0.9 ± 0.1 % ID, the “% ID Hippocampus” value (60 min p.i.) was 0.022 ± 0.003 % ID and the “% ID Intestines” value (60 min p.i.) was 13.4 ± 3.3 % ID. The “% ID Kidneys” value (60 min p.i.) was 2.0 ± 0.3 % ID, the “% ID Liver” value (60 min p.i.) was 15.3 ± 2.1 % ID and the “% ID Lungs” value (60 min p.i.) was 0.7 ± 0.1 % ID. The “% ID Rest of cerebrum” value (60 min p.i.) was 0.435 ± 0.004 % ID, the “% ID Spleen + Pancreas” value (60 min p.i.) was 0.9 ± 0.0 % ID and the “% ID Stomach” value (60 min p.i.) was 2.4 ± 0.7 % ID. The “% ID Striatum” value (60 min p.i.) was 0.026 ± 0.007 % ID, the “% ID Urine” value (60 min p.i.) was 0.5 ± 0.2 % ID and the “% ID present in liver and intestines” value (60 min p.i.) was 28.7 % ID. For the same compound, the “% ID present in the urinary system” value (60 min p.i.) was 2.5 % ID, the Total brain uptake (60 min p.i.) was 0.72 ± 0.0 % ID and the “SUV Blood” value (60 min p.i.) was 0.50 ± 0.01. The “SUV Cerebellum” value (60 min p.i.) was 1.50 ± 0.01, the “SUV Cerebrum total” value (60 min p.i.) was 1.19 ± 0.01 and the “SUV Cortex” value (60 min p.i.) was 1.10 ± 0.01. The “SUV Hippocampus” value (60 min p.i.) was 0.98 ± 0.01 and the “SUV Striatum” value (60 min p.i.) was 1.43 ± 0.01.
With [11CH3]Oc1ccc(F)c(F)c1C1CCN(c2ccn3c(CC4CC4)nnc3c2Cl)CC1 [[^11C]B-10, 8-chloro-3-(cyclopropylmethyl)-7-[4-[2,3-difluoro-6-[^11C]methoxyphenyl]-1-piperidinyl]-1,2,4-triazolo[4,3-a]pyridine] the “% ID Blood” value (2 min p.i.) was 6.0 % ID and 6.0 ± 1.3 % ID, the “% ID Carcass” value (2 min p.i.) was 38.5 ± 2.5 % ID and the “% ID Cerebellum” value (2 min p.i.) was 0.15 % ID and 0.149 ± 0.054 % ID. For the same compound, the “% ID Cerebrum total” value (2 min p.i.) was 0.46 % ID and 0.456 ± 0.114 % ID, the “% ID Cortex” value (2 min p.i.) was 0.053 ± 0.025 % ID and the “% ID Heart” value (2 min p.i.) was 4.3 ± 0.3 % ID. The “% ID Hippocampus” value (2 min p.i.) was 0.017 ± 0.005 % ID, the “% ID Intestines” value (2 min p.i.) was 8.5 ± 0.2 % ID and the “% ID Kidneys” value (2 min p.i.) was 7.8 ± 1.1 % ID. The “% ID Liver” value (2 min p.i.) was 32.3 ± 3.2 % ID, the “% ID Lungs” value (2 min p.i.) was 1.8 ± 0.1 % ID and the “% ID Rest of cerebrum” value (2 min p.i.) was 0.387 ± 0.084 % ID. The “% ID Spleen + Pancreas” value (2 min p.i.) was 1.5 ± 0.3 % ID, the “% ID Stomach” value (2 min p.i.) was 1.8 ± 0.1 % ID and the “% ID Striatum” value (2 min p.i.) was 0.026 ± 0.012 % ID. The “% ID Urine” value (2 min p.i.) was 0.1 ± 0.0 % ID, the Total brain uptake (2 min p.i.) was 0.64 % ID and 0.64 ± 0.1 % ID and the “SUV Blood” value (2 min p.i.) was 0.90 ± 0.02. The “SUV Cerebellum” value (2 min p.i.) was 1.59 ± 0.06, the “SUV Cerebrum total” value (2 min p.i.) was 1.12 ± 0.03 and the “SUV Cortex” value (2 min p.i.) was 1.16 and 1.16 ± 0.04. The “SUV Hippocampus” value (2 min p.i.) was 1.11 ± 0.08, the “SUV Striatum” value (2 min p.i.) was 1.37 ± 0.05 and the “% ID Blood” value (30 min p.i.) was 3.9 ± 0.1 % ID. The “% ID Carcass” value (30 min p.i.) was 62.97 ± 2.4 % ID, the “% ID Cerebellum” value (30 min p.i.) was 0.152 ± 0.023 % ID and the “% ID Cerebrum total” value (30 min p.i.) was 0.637 ± 0.078 % ID. For the same compound, the “% ID Cortex” value (30 min p.i.) was 0.071 ± 0.006 % ID, the “% ID Heart” value (30 min p.i.) was 1.8 ± 0.1 % ID and the “% ID Hippocampus” value (30 min p.i.) was 0.021 ± 0.004 % ID. The “% ID Intestines” value (30 min p.i.) was 9.2 ± 1.4 % ID, the “% ID Kidneys” value (30 min p.i.) was 3.3 ± 0.2 % ID and the “% ID Liver” value (30 min p.i.) was 16.2 ± 0.4 % ID. For the same compound, the “% ID Lungs” value (30 min p.i.) was 0.8 ± 0.0 % ID, the “% ID Rest of cerebrum” value (30 min p.i.) was 0.511 ± 0.063 % ID and the “% ID Spleen + Pancreas” value (30 min p.i.) was 1.1 ± 0.1 % ID. The “% ID Stomach” value (30 min p.i.) was 1.8 ± 0.4 % ID, the “% ID Striatum” value (30 min p.i.) was 0.034 ± 0.005 % ID and the “% ID Urine” value (30 min p.i.) was 0.3 ± 0.0 % ID. For the same compound, the Total brain uptake (30 min p.i.) was 0.80 ± 0.1 % ID, the “SUV Blood” value (30 min p.i.) was 0.50 ± 0.00 and the “SUV Cerebellum” value (30 min p.i.) was 1.68 and 1.68 ± 0.05. For the same compound, the “SUV Cerebrum total” value (30 min p.i.) was 1.34 ± 0.03, the “SUV Cortex” value (30 min p.i.) was 1.39 and 1.39 ± 0.05 and the “SUV Hippocampus” value (30 min p.i.) was 0.93 ± 0.02. The “SUV Striatum” value (30 min p.i.) was 1.39 ± 0.03, the “% ID Blood” value (60 min p.i.) was 3.4 % ID and 3.4 ± 0.2 % ID and the “% ID Carcass” value (60 min p.i.) was 63.7 ± 1.8 % ID. For the same compound, the “% ID Cerebellum” value (60 min p.i.) was 0.172 ± 0.030 % ID, the “% ID Cerebrum total” value (60 min p.i.) was 0.598 ± 0.036 % ID and the “% ID Cortex” value (60 min p.i.) was 0.070 ± 0.002 % ID. The “% ID Heart” value (60 min p.i.) was 1.2 ± 0.1 % ID, the “% ID Hippocampus” value (60 min p.i.) was 0.026 ± 0.002 % ID and the “% ID Intestines” value (60 min p.i.) was 11.8 ± 0.0 % ID. For the same compound, the “% ID Kidneys” value (60 min p.i.) was 2.6 ± 0.2 % ID, the “% ID Liver” value (60 min p.i.) was 13.7 ± 1.3 % ID and the “% ID Lungs” value (60 min p.i.) was 0.7 ± 0.0 % ID. The “% ID Rest of cerebrum” value (60 min p.i.) was 0.466 ± 0.033 % ID, the “% ID Spleen + Pancreas” value (60 min p.i.) was 1.4 ± 0.5 % ID and the “% ID Stomach” value (60 min p.i.) was 2.0 ± 0.4 % ID. For the same compound, the “% ID Striatum” value (60 min p.i.) was 0.035 ± 0.005 % ID, the “% ID Urine” value (60 min p.i.) was 0.4 ± 0.1 % ID and the “% ID present in liver and intestines” value (60 min p.i.) was 25.5 % ID. For the same compound, the “% ID present in the urinary system” value (60 min p.i.) was 3.0 % ID, the Total brain uptake (60 min p.i.) was 0.78 ± 0.0 % ID and the “SUV Blood” value (60 min p.i.) was 0.50 ± 0.00. For the same compound, the “SUV Cerebellum” value (60 min p.i.) was 1.52 ± 0.02, the “SUV Cerebrum total” value (60 min p.i.) was 1.19 ± 0.01 and the “SUV Cortex” value (60 min p.i.) was 1.08 ± 0.01. For the same compound, the “SUV Hippocampus” value (60 min p.i.) was 0.94 ± 0.01 and the “SUV Striatum” value (60 min p.i.) was 1.55 ± 0.01.
